Tests used:
[1] = tested on: anti-CYP mAb 2G7H9; test: ic-ELISA based on mAb 2G7H9; assay type: binding, mouse; details: CR = IC50 of CYP/IC50 of analogue × 100%
Protocol: The ic-ELISA procedure was executed according to previous studies. Each well of the ELISA plate was coated with 100 μL of coating antigen diluted with carbonate buffer (0.05 mol/L, pH 9.6) at 4 °C overnight. After washing three times with phosphate-buffered saline (PBS, 0.01 mol/L, pH 7.4) containing 1‰ Tween-20, the wells were blocked with 200 μL of 5% skim milk powder in PBS at 37 °C for two hours. After the same washing procedure, 50 μL of CYP standard solution and 50 μL of mAb were pipetted into each well and incubated at 37 °C for one hour. After washing five times, 100 μL per well of 0.5‰ horseradish peroxidase-labeled goat anti-mouse IgG antibody in PBS was added and incubated at 37 °C for one hour. After the wells were washed five times, 100 μL per well of fresh substrate solution (0.1 mg/mL 3,3′,5,5′-tetramethylbenzidine and 0.024‰ H2O2 in 0.1 M citrate acid buffer) was added to react at 37 °C for 15 min. Then, 50 μL per well of 0.2 mol/L H2SO4 was used to stop the reaction, and the absorbances were read at 450 nm with a microplate reader.
Under the optimal conditions, a standard curve was constructed using a series of concentrations of standard solutions (50, 25, 12.5, 6.25, 3.13, 1.56, 0.78, 0.39 and 0.20 ng/mL) to assess the sensitivity of ic-ELISA. The IC50 and linear range (IC10–IC90) were calculated by a logistic equation established with Origin Pro 8.0.
The CRs of the ic-ELISA were calculated with the following equation:CR (%) = (IC50 of CYP/IC50 of analogues) × 100%.

[2] = tested on: anti-CYP mAb; test: colloidal gold LFIA strip; assay type: binding, mouse; details: for CR of LFIA: CR = vLOD of CYP/vLOD of analogue × 100%; for visual limit of detection (vLOD): optimal buffer
Protocol: Colloidal gold particles were synthesized with trisodium citrate as a reducing agent according to our previous work. For the preparation of colloidal gold mAb, 6.65 μg/mL anti-CYP mAbs were added to the colloidal gold solution adjusted to pH 8.2 using 0.2 mol/L K2CO3 with shaking at room temperature for 1 h. BSA (1%) was used to block free colloidal gold particles. After 1 h, the mixture was centrifuged at 12,000 revolutions per minute (RPM) for 15 min to remove free anti-CYP mAbs. The centrifuged deposits were resuspended using one-tenth of the original volume of sodium borate solution (0.01 mol/L) containing 2% BSA and 3% sucrose and preserved at 4 °C.
As depicted in Figure 1A, the LFIA strip was assembled into four components. The center section of a PVC plate was affixed to an NC membrane. The sample pad and absorption pad were stuck on both ends of the PVC plate, and both overlapped with the NC membrane by 1 mm. A total of 2 mg/mL of hapten 5-BSA and 0.5 mg/mL of GAMA were sprayed onto the NC membrane as the test line and control line, respectively, with 5 mm intervals by an automatic dispenser. After drying at 37 °C for 12 h, the fabricated cards were cut into 4 mm wide LFIA strips.
One hundred microliters of the CYP standard solution and 4 μL of the colloidal gold mAb solution were added into a micropore and mixed. After 5 min, an LFIA strip was inserted into the mixture solution. During the mixed solution migration from the sample pad to the absorbent pad, colloidal gold mAb was captured by the T and C lines, resulting in the appearance of color bands within 10 min. When the T line disappeared or the color intensity of the T line was lower than that of the C line, the result was positive (Figure 1B,C). When the color intensity of the T line was not less than that of the C line, the result was negative (Figure 1D).
The sensitivity of the LFIA strip was evaluated by a series of CYP standard solutions (0.7, 0.6, 0.5, 0.4, 0.3, 0.2, 0.1, 0 μg/mL). For qualitative analysis, the sensitivity of the LFIA strip was appraised by the visual LOD (vLOD) and the cut-off value. The vLOD is the lowest concentration of CYP at which the lighter color of the T line is observed compared to the C line. The cut-off value is the minimum CYP concentration at which no color band appears on the T line.
The CRs of the LFIA were calculated with the following equation:CR (%) = (vLOD of CYP/vLOD of analogues) × 100%.

| Compound | Cross-reactivity rate (%) of ic-ELISA [1] [%] | CR of LFIA [2] [%] | visual limit of detection (vLOD) [2] [µg/mL] |
| --- | --- | --- | --- |
| CC1(C)C(C=C(Cl)Cl)C1C(=O)OC(C#N)c1ccc(F)c(Oc2ccccc2)c1 (stereo not drawn) [cyfluthrin] | 31.09 | 30 | 1 |
| CC1(C)C(/C=C(\Cl)C(F)(F)F)C1C(=O)OC(C#N)c1cccc(Oc2ccccc2)c1 (stereo not drawn) [cyhalothrin] | 16.15 | 3 | 10 |

— paper PMC9688530, “Development of Ic-ELISA and Colloidal Gold Lateral Flow Immunoassay for the Determination of Cypermethrin in Agricultural Samples” (Biosensors, 2022)
